Columns and labels:
[1] = system: control sera (pooled serum of ten healthy LUMC hospital workers; commercial negative donor pooled serum from the Dutch bloodbank); assay type: binding, human; design: Binding of Control serum LUMC to linear peptides / Binding of Control serum Blood-bank to linear peptides / Binding of Control serum LUMC to looped peptides / Binding of Control Serum Blood-Bank to Looped peptides / Binding of Control serum LUMC to linear peptides of the protein M of SARS-CoV Urbani / Binding of Control serum Blood-bank to linear peptides of the protein M of SARS-CoV Urbani / Binding of Control serum LUMC to looped peptides of the protein M of SARS-CoV Urbani / Binding of Control Serum Blood-Bank to Looped peptides of the protein M of SARS-CoV Urbani: unit not given here
[2] = system: rabbit serum obtained by immunizing a rabbit with the SARS-CoV strain Frankfurt 1; assay type: binding; design: Binding of a rabbit serum to linear peptides / Binding of a rabbit serum to looped peptides / Rabbit serum linear peptides / Rabbit serum looped peptides / Binding of a rabbit serum to linear peptides of protein N of SARS-CoV Urbani (Rabbit serum linear peptides) / Binding of a rabbit serum to looped/cyclic peptides of protein N of SARS-CoV Urbani (Rabbit serum looped peptides): unit not given here

Row | Sequence | Binding of Control Serum Blood-Bank to Looped peptides of the protein X3 of SARS-CoV Urbani [1] | Binding of Control serum Blood-bank to linear peptides of the protein X3 of SARS-CoV Urbani [1] | Binding of Control serum LUMC to linear peptides of the protein X3 of SARS-CoV Urbani [1] | Binding of Control serum LUMC to looped peptides of the protein X3 of SARS-CoV Urbani [1] | Rabbit serum linear peptides [2] | Rabbit serum looped peptides [2] | Binding of Control Serum Blood-Bank to Looped peptides [1] | Binding of Control serum Blood-bank to linear peptides [1] | Binding of Control serum LUMC to linear peptides [1] | Binding of Control serum LUMC to looped peptides [1] | Binding of a rabbit serum to linear peptides [2] | Binding of a rabbit serum to looped peptides [2] | Binding of Control Serum Blood-Bank to Looped peptides of the protein M of SARS-CoV Urbani [1] | Binding of Control serum Blood-bank to linear peptides of the protein M of SARS-CoV Urbani [1] | Binding of Control serum LUMC to linear peptides of the protein M of SARS-CoV Urbani [1] | Binding of Control serum LUMC to looped peptides of the protein M of SARS-CoV Urbani [1]
1 | VRQLFKPLTKKNYSE | 0.9 | 0.9 | 0.7 | 0.7 | 0.4 | 2.2 |  |  |  |  |  |  |  |  |  | 
2 | TINCQDPAGGALIAR |  |  |  |  | 0.6 | 0.7 | 1.3 | 1.0 | 0.6 | 1.0 |  |  |  |  |  | 
3 | GSITAQPVKIDNASP |  |  |  |  |  |  | 0.6 | 0.6 | 0.6 | 0.5 | 0.2 | 0.4 |  |  |  | 
4 | YHYQECVRGTTVLLK |  |  |  |  | 1.7 | 0.6 | 0.7 | 0.8 | 0.7 | 0.8 |  |  |  |  |  | 
5 | NTDHAGSNDNIALLV |  |  |  |  | 0.4 | 0.4 |  |  |  |  |  |  | 1.0 | 0.8 | 0.5 | 0.9
6 | RFFTLGSITAQPVKI |  |  |  |  |  |  | 0.8 | 1.0 | 1.1 | 0.7 | 1.7 | 0.5 |  |  |  | 
7 | YQIGGYSEDRHSGVK |  |  |  |  |  |  | 0.3 | 0.3 | 0.4 | 0.3 | 0.1 | 0.5 |  |  |  | 
8 | FTLGSITAQPVKIDN |  |  |  |  |  |  | 1.6 | 0.5 | 0.6 | 1.2 | 0.7 | 0.8 |  |  |  | 
9 | IGNYKLNTDHAGSND |  |  |  |  | 0.5 | 0.0 |  |  |  |  |  |  | 0.7 | 0.5 | 0.3 | 0.8
10 | TFFIFNKLVKDPPNV |  |  |  |  |  |  | 0.6 | 0.7 | 0.6 | 0.6 | 0.1 | 0.5 |  |  |  | 
11 | LSYYKLGASQRVGTD |  |  |  |  | 0.2 | 0.3 |  |  |  |  |  |  | 0.7 | 0.8 | 0.8 | 0.7
12 | ANPAMDPIYDEPTTT |  |  |  |  |  |  | 0.4 | 0.4 | 0.3 | 0.4 | 0.1 | 0.4 |  |  |  | 
13 | IISSIVRQLFKPLTK | 0.6 | 0.8 | 0.8 | 0.6 | 0.6 | 0.4 |  |  |  |  |  |  |  |  |  | 
14 | YKLNTDHAGSNDNIA |  |  |  |  | 0.1 | 0.1 |  |  |  |  |  |  | 0.6 | 0.6 | 0.7 | 0.6
15 | ILIIIMRTFRIAIWN | 0.7 | 0.8 | 0.5 | 0.3 | 0.5 | 0.6 |  |  |  |  |  |  |  |  |  | 
16 | LGASQRVGTDSGFAA |  |  |  |  | 0.3 | 0.1 |  |  |  |  |  |  | 0.6 | 0.9 | 0.5 | 0.8
17 | IVNVSLVKPTVYVYS |  |  |  |  |  |  | 0.9 | 0.7 | 0.4 | 0.9 | 0.5 | 0.5 |  |  |  | 
18 | FFIFNKLVKDPPNVQ |  |  |  |  |  |  | 0.5 | 0.6 | 0.7 | 0.6 | 0.1 | 0.5 |  |  |  | 
19 | VTGGIAIAMACIVGL |  |  |  |  | 0.3 | 0.4 |  |  |  |  |  |  | 0.7 | 1.1 | 1.3 | 0.8
20 | QECVRGTTVLLKEPC |  |  |  |  | 0.6 | 0.5 | 0.9 | 0.9 | 1.0 | 0.8 |  |  |  |  |  | 
21 | ISTPKLKEDYQIGGY |  |  |  |  |  |  | 0.7 | 0.7 | 1.0 | 0.5 | 0.1 | 0.4 |  |  |  | 
22 | YYKLGASQRVGTDSG |  |  |  |  | 0.1 | 0.0 |  |  |  |  |  |  | 0.7 | 1.0 | 0.8 | 0.7
23 | DRHSGVKDYVVVHGY |  |  |  |  |  |  | 0.6 | 0.7 | 0.7 | 0.4 | 0.1 | 0.5 |  |  |  | 
24 | AYCCNIVNVSLVKPT |  |  |  |  |  |  | 0.9 | 0.9 | 0.9 | 0.8 | 0.3 | 0.2 |  |  |  | 
25 | TDHAGSNDNIALLVQ |  |  |  |  | 0.1 | 0.2 |  |  |  |  |  |  | 1.0 | 0.7 | 1.0 | 1.0
26 | VKIDNASPASTVHAT |  |  |  |  |  |  | 0.5 | 0.7 | 0.7 | 0.6 | 0.2 | 0.3 |  |  |  | 
27 | WVTGGIAIAMACIVG |  |  |  |  | 0.4 | 0.2 |  |  |  |  |  |  | 0.8 | 0.8 | 0.4 | 0.9
28 | KEDYQIGGYSEDRHS |  |  |  |  |  |  | 0.3 | 0.5 | 0.5 | 0.4 | 0.1 | 0.5 |  |  |  | 
29 | NKLVKDPPNVQIHTI |  |  |  |  |  |  | 0.8 | 1.0 | 0.9 | 0.9 | 0.1 | 0.6 |  |  |  | 
30 | LVKDPPNVQIHTIDG |  |  |  |  |  |  | 0.6 | 0.4 | 0.4 | 0.7 | 0.1 | 0.5 |  |  |  | 

Reference: US20070128217A1 (priority 2003, published 2007)
